Laboratory results as given in patent US12344610B2, “APOL1 inhibitors and methods of use” (Maze Therapeutics, Inc., priority 2022, dated 2025).

Assays:
APOL1 G2 = biological target: T1, APOL1 G2 (Homo sapiens, UniProt O14791, DEL388-389); assay: APOL1-mediated calcium transport (calcium influx) assay, HEK T-REx/GCaMP6f/APOL1 G2 K6.3 cells, FLIPR TETRA; format: cell-based; conditions: prevention of calcium influx; geometric mean of at least 2 assay runs; † = average of a technical replicate from a single assay run
T1 construct: expressed in transfected cells; host or cells: HEK293 T-REx clonal line stably expressing GCaMP6f (HEK T-REx/GCaMP6f/APOL1 G2 K6.3), doxycycline induced
T1 sequence (O14791 with tags, fused parts or gaps DEL388-389): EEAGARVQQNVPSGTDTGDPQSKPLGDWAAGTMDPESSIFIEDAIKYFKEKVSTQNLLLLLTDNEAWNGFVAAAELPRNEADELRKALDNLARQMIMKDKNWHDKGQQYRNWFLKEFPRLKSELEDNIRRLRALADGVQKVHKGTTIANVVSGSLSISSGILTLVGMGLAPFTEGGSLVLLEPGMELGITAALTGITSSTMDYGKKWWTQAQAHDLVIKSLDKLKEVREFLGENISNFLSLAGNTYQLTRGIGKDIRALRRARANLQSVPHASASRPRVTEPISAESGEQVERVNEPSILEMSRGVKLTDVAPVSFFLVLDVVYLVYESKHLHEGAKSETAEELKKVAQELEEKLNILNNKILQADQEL
In short: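 A HEK293 T-REx clone stably expressing GCaMP6f had APOL1 G2 induced with doxycycline (20 ng/mL solution added) for 6 h. Cells were then washed into Ca2+-free Tyrode's buffer (pH 7.4) and preincubated with compounds (duplicate 8-point) for 10 min at room temperature. Ca2+ injection to 5 mM final produced FLIPR GCaMP fluorescence, giving AC50 for influx inhibition (geometric mean, ≥2 runs).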

[1] = system: HEK293 cells overexpressing APOL1 G2; assay: APOL1 G2 HEK293 cell rescue assay (reversal of cell death caused by overexpression of APOL1); format: cell-based; conditions: Homo sapiens, HEK293, HEK293 overexpressing APOL1 G2; geometric mean of at least 2 assay runs; † = single assay run
In short: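 EC50 is the half-maximal effective concentration for reversing cell death driven by APOL1 G2 overexpression in HEK293 cells. Reported as geometric mean of at least 2 runs on separate days, each run averaging duplicate wells per plate; some values from a single run.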

Structure (SMILES)	AC50 (APOL1 G2) [µM]	EC50 [1] [µM]
C[C@]1(O)C[C@@H](N2C(=O)CCc3cc(OCCN4CCC5(CC4)C(=O)Nc4ccc(Cl)cc45)cnc32)C1 [Compound 275, 5-chloro-1′-[2-({7-oxo-8-[(cis)-3-hydroxy-3-methylcyclobutyl]-5,6,7,8-tetrahydro-1,8-naphthyridin-3-yl}oxy)ethyl]-1,2-dihydrospiro[indole-3,4′-piperidin]-2-one]	0.64	0.027
CS(=O)(=O)C1(c2ncc(OCCN3CCC4(CC3)C(=O)Nc3ccc(Cl)cc34)cn2)COC1 [Compound 276, 5-chloro-1′-(2-{[2-(3-methanesulfonyloxetan-3-yl)pyrimidin-5-yl]oxy}ethyl)-1,2-dihydrospiro[indole-3,4′-piperidin]-2-one]	1.75	0.101
CS(=O)(=O)C1(c2ncc(OCCN3CCC4(CC3)C(=O)Nc3ccc(C#N)cc34)cc2F)CC1 [Compound 283, 1′-(2-{[5-fluoro-6-(1-methanesulfonylcyclopropyl)pyridin-3-yl]oxy}ethyl)-2-oxo-1,2-dihydrospiro[indole-3,4′-piperidine]-5-carbonitrile]	2	0.099
CC(O)c1ncc(OCCN2CCC3(CC2)C(=O)Nc2ccc(Cl)cc23)cn1 (stereo not shown) [Compound 284, 5-chloro-1′-(2-{[2-(1-hydroxyethyl)pyrimidin-5-yl]oxy}ethyl)-1,2-dihydrospiro[indole-3,4′-piperidin]-2-one]	0.756	0.199
C[C@]1(O)C[C@@H](N2C(=O)OCc3cc(OCCN4CCC5(CC4)C(=O)Nc4ccc(Cl)cc45)cnc32)C1 [Compound 289, 5-chloro-1′-[2-({2-oxo-1-[(cis)-3-hydroxy-3-methylcyclobutyl]-1H,2H,4H-pyrido[2,3-d][1,3]oxazin-6-yl]oxy)ethyl]-1,2-dihydrospiro[indole-3,4′-piperidin]-2-one]	0.552	0.0167
CC1(O)CN(c2ncc(OCCN3CCC4(CC3)C(=O)Nc3ccc(Cl)cc34)cn2)C1 [Compound 300, 5-chloro-1′-(2-{[2-(3-hydroxy-3-methylazetidin-1-yl)pyrimidin-5-yl]oxy}ethyl)-1,2-dihydrospiro[indole-3,4′-piperidin]-2-one]	0.674	0.1
O=C1Nc2ccc(Cl)cc2C12CCN(CCOc1cnc(N3CC(O)C3)nc1)CC2 [Compound 301, 5-chloro-1′-(2-{[2-(3-hydroxyazetidin-1-yl)pyrimidin-5-yl]oxy}ethyl)-1,2-dihydrospiro[indole-3,4′-piperidin]-2-one]	0.586	0.086
CS(=O)(=O)C1CN(c2ncc(OCCN3CCC4(CC3)C(=O)Nc3ccc(Cl)cc34)cn2)C1 [Compound 302, 5-chloro-1′-(2-{[2-(3-methanesulfonylazetidin-1-yl)pyrimidin-5-yl]oxy}ethyl)-1,2-dihydrospiro[indole-3,4′-piperidin]-2-one]	1.03	0.0981
CC(C)(O)c1ncc(OCCN2CCC3(CC2)C(=O)Nc2ccc(Cl)cc23)cn1 [Compound 305, 5-chloro-1′-(2-{[2-(2-hydroxypropan-2-yl)pyrimidin-5-yl]oxy}ethyl)-1,2-dihydrospiro[indole-3,4′-piperidin]-2-one]	0.649	0.0854
CC1(O)CN(c2nccc3cc(OCCN4CCC5(CC4)C(=O)Nc4ccc(Cl)cc45)cnc23)C1 [Compound 306, 5-chloro-1′-(2-{[8-(3-hydroxy-3-methylazetidin-1-yl)-1,7-naphthyridin-3-yl]oxy}ethyl)-1,2-dihydrospiro[indole-3,4′-piperidin]-2-one]	1.4	0.11
O=C1Nc2ccc(Cl)cc2C12CCN(CCOc1cnc3c(N4CC(O)C4)nccc3c1)CC2 [Compound 314, 5-chloro-1′-(2-{[8-(3-hydroxyazetidin-1-yl)-1,7-naphthyridin-3-yl]oxy}ethyl)-1,2-dihydrospiro[indole-3,4′-piperidin]-2-one]	0.968	0.0243
